According to paper PMC10720383, “Acetylcholinesterase Inhibition in Rats and Humans Following Acute Fenitrothion Exposure Predicted by Physiologically Based Kinetic Modeling-Facilitated Quantitative In Vitro to In Vivo Extrapolation” (Environmental Science & Technology, 2023):
“And” between values parts separate entries of the source, which are not always exact repeats. Equal values may be shown once. Read-outs that look alike come from different tables or passages of the source.

Key:
erythrocyte AChE [1] = settings: human, highest dose tested, cited from earlier work
erythrocyte AChE [2] = test: Reported NOAELs from in vivo rat toxicity studies
Description: Acute exposure to FNT will cause neurotoxic symptoms in mammals due to AChE inhibition and subsequent acetylcholine accumulation at synaptic clefts.[10] Several no-observed-adverse-effect levels (NOAELs) derived from different in vivo rat or human toxicity data sets have been reported by different organizations, even though the same endpoint (erythrocyte AChE inhibition) was chosen. Specifically, NOAELs of 0.25 and 1.3 mg/kg BW for rats have been set by the US Environmental Protection Agency (US EPA)[11] and European Food Safety Authority (EFSA),[1] respectively, and NOAELs of 0.33 and 0.36 mg/kg BW for humans have been derived by Australian Pesticides and Veterinary Medicines Authority (APVMA)[12] and the Joint Food and Agriculture Organization of the United Nations/World Health Organization Meeting on Pesticide Residues (JMPR),[13] respectively. […]
A NOAEL of 1.3 mg/kg BW was reported by EFSA[1] from a 90 day rat study[44] considering the impaired body weight gain and reduction in erythrocyte and brain cholinesterase activity as the critical effects. The US EPA[11] reported a 5.2-fold lower NOAEL (0.25 mg/kg BW) based on the measured erythrocyte AChE inhibition after 2 weeks of FNT dosing in a 92 week rat study.[45] […]

erythrocyte AChE [3] = settings: rat, cited from earlier work
erythrocyte AChE [4] = test: PBK modeling-facilitated QIVIVE and BMD analysis, human
Description: For toxicity prediction, the maximum blood FNO concentration was used as a dose metric relating AChE inhibition to acute FNT exposure (see section 3.3). Since the in vitro AChE inhibition under increasing FNO concentrations was tested in rat and human blood, these nominal concentrations could be used directly as the biological effective concentrations (in vivo maximum blood FNO concentrations), and no extra correction for differences in in vitro and in vivo protein binding was deemed necessary. Then the corresponding FNT dose levels resulting in these in vivo concentrations were derived via PBK modeling-facilitated reverse dosimetry. In doing so, the in vitro concentration–response relationship was converted to the predicted in vivo dose-dependent erythrocyte AChE inhibition, which was then compared to available in vivo toxicity data in rats and humans.[8],[39]
BMD modeling was used to derive POD values from the predicted in vivo dose-dependent data sets for rats and humans. A BMD value resulting in a 10% benchmark response (BMR) change with lower 95% confidence limit was defined as BMDL10, and the obtained values for rats and humans were evaluated against the reported NOAELs.[1],[11]−[13] Details and results of BMD analysis are provided in the Supporting Information. […]
BMD modeling was used to derive POD values from the predicted in vivo dose-response curves for rats and humans. The EFSA web-tool (https://efsa.openanalytics.eu/) integrated with the R package PROAST (version 70.0) developed by the Dutch National Institute for Public Health and the Environment (RIVM) was used for the BMD analysis. A BMD value resulting in a 10% benchmark response (BMR) change with lower 95% confidence limit was defined as BMDL10. Briefly, the continuous data were fitted to a set of models (Exponential, Hill, Inverse Exponential, and Log-Normal family models), and all fitted models excluding the FULL and NULL models were used for model averaging via a weighted average model. […]

[5] = humans, oral exposure; cited from earlier work
erythrocyte AChE [6] = settings: cited from earlier work

COP(=S)(OC)Oc1ccc([N+](=O)[O-])c(C)c1 [FNT, O,O-dimethyl O-4-nitro-m-tolyl phosphorothioate]
reported NOAEL (erythrocyte AChE [1]; APVMA, single dose human study): 0.33 mg/kg BW | reported NOAEL (erythrocyte AChE [1]; JMPR, 4 day study in human volunteers): 0.36 mg/kg BW | US EPA rat NOAEL, fold lower than EFSA rat NOAEL (erythrocyte AChE [2]): 5.2 fold | reported NOAEL (erythrocyte AChE [3]; EFSA, 90 day rat study, body weight gain and erythrocyte and brain cholinesterase activity): 1.3 mg/kg BW and 1.30 mg/kg BW | reported NOAEL (erythrocyte AChE [3]; US EPA, erythrocyte AChE inhibition after 2 weeks of dosing in a 92 week rat study): 0.25 mg/kg BW | predicted POD for humans, fold lower than that of rats (erythrocyte AChE [4]; BMDL10 rat vs human): 5 fold | predicted BMDL10 (POD) (erythrocyte AChE [4]; human, erythrocyte AChE inhibition, acute oral FNT exposure, 10% BMR, lower 95% confidence limit): 0.26 mg/kg BW | BMDU10 (erythrocyte AChE [4]; human, erythrocyte AChE inhibition, acute oral FNT exposure, upper confidence limit): 0.66 mg/kg BW | fraction of the dose absorbed (Fa) [5]: 0.7 | acute reference dose (ARfD) (erythrocyte AChE [6]; JMPR): 0.04 mg/kg BW/day | acute reference dose (ARfD) (erythrocyte AChE [6]; US EPA): 0.0025 mg/kg BW/day
